From patent US20060128721A1, “Novel formulations of opioid-based treatments of pain comprising substituted 1,4-di-piperidin-4-yl-piperazine derivatives” (priority 2003, published 2006)
Read-outs that look alike come from different tables or passages of the source. One block for each compound: values may come before it.

What was measured:
[1] = target: T1, cloned human h-NK1 receptors expressed in CHO cells (Homo sapiens, UniProt P25103); assay: Binding experiment for h-NK1 receptors ([3H]-Substance P displacement); settings: read-out: h-NK1 pIC50 (converted)
T1 construct: expressed in transfected cells; host or cells: CHO cells
T1 sequence (P25103 whole entry): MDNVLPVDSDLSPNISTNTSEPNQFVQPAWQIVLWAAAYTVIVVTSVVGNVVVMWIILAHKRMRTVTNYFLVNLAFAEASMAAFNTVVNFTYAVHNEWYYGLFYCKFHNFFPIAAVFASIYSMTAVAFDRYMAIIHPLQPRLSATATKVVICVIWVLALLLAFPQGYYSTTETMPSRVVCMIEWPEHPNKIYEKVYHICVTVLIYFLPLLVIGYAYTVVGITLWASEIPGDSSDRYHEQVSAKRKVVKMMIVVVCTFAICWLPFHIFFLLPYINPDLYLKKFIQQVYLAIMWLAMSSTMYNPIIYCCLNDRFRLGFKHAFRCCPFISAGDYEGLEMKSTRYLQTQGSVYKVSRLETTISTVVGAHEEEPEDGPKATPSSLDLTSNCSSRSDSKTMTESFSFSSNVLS
Protocol: (§1) The compounds according to the invention were investigated for interaction with various neurotransmitter receptors, ion channels and transporter binding sites using the radioligand binding technique. Membranes from tissue homogenates or from cells, expressing the receptor or transporter of interests, were incubated with a radioactively labelled substance ([^3H]- or [^125I] ligand) to label a particular receptor. […] Following incubation, labelled membranes were harvested and rinsed with excessive cold buffer to remove non-bound radioactivity by rapid filtration under suction. Membrane bound radioactivity was counted in a scintillation counter and results were expressed in counts per minute (cpm).
(§2) The compounds were dissolved in DMSO and tested at 10 concentrations ranging from 10^−10 to 10^−5 M.
(§3) The ability of the compounds according to the invention to displace [^3H]-Substance P from cloned human h-NK1 receptors expressed in CHO cells, to displace [^3H]-SR-48968 from cloned human h-NK2 receptors expressed in Sf9 cells, and to displace [^3H]-SR-142801 from cloned human h-NK3 receptors expressed in CHO cells was evaluated.

[2] = target: T2, cloned human h-NK2 receptors expressed in Sf9 cells (Homo sapiens, UniProt P21452); assay: Binding experiment for h-NK2 receptors ([3H]-SR-48968 displacement); settings: [3H]-SR-48968, Sf9 cells; read-out: h-NK2 pIC50 (converted)
T2 construct: expressed in transfected cells; host or cells: Sf9 cells
T2 sequence (P21452 1-398): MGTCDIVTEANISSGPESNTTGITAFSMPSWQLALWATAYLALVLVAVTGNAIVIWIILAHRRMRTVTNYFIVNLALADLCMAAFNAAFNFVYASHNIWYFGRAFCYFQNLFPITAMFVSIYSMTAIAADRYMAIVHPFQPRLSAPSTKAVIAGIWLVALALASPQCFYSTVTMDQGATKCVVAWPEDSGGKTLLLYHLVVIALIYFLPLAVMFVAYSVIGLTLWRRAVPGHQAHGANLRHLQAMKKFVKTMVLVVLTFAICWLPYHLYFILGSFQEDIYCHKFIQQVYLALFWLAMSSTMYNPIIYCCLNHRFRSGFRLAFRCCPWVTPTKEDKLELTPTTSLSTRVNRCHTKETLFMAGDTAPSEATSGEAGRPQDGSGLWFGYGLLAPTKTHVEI
Protocol: as §1, §2, §3

[3] = target: T3, cloned human h-NK3 receptors expressed in CHO cells (Homo sapiens, UniProt P29371); assay: Binding experiment for h-NK3 receptors ([3H]-SR-142801 displacement); settings: [3H]-SR-142801, CHO cells; read-out: h-NK3 pIC50 (converted)
T3 construct: expressed in transfected cells; host or cells: CHO cells
T3 sequence (P29371 1-465): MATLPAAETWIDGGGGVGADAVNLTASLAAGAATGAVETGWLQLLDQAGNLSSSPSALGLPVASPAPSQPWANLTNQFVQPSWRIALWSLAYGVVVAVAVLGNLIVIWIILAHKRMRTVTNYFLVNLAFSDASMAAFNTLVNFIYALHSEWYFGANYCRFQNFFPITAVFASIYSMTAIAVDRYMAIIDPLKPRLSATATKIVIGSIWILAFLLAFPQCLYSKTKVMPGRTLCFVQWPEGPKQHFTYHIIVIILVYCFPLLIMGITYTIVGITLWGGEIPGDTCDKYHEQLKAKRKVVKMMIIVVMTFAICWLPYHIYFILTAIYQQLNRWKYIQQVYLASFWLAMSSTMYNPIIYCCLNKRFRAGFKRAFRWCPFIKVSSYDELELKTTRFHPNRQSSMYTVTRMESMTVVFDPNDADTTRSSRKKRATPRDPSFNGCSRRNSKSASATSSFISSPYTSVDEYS
Protocol: as §1, §2, §3

[4] = test system: loperamide-induced retching; assay: Antiemetic effects: loperamide-induced retching in ferrets; assay type: in vivo; settings: ferrets
Protocol: The antiemetic effects have been determined using the loperamide-induced retching model (i.e. retching induced by an opioid) in ferrets. To exclude species differences in antiemetic activiey, both compounds have also been tested for antiemetic activity against apomorphine in dogs.
Antagonism of emesis induced by the peripherally selective opioid loperamide (0.31 mg/kg, s.c.) was studied over a 1 h-period starting immediately after the emetic challenge in ferrets pretreated with test compound or solvent. In control animals pre-treated with solvent, loperamide induced pronounced retching (mean±SD: 95±39 counts; n=[…]) and, to a lesser extent, vomiting (5±4).

IC50 [1]: 1.26 nM
IC50 [2]: 501 nM
IC50 [3]: 251 nM
Compound: O=C(c1ccccc1)N1CCC(N2CCN(C3CCN(C(=O)c4cc(C(F)(F)F)cc(C(F)(F)F)c4)C(Cc4ccccc4)C3)CC2)CC1 (stereo not drawn) [Compound 3, {4-[4-(1-benzoyl-piperidin-4-yl)-piperazin-1-yl]-2-benzyl-piperidin-1-yl}-(3,5-bis-trifluoromethyl-phenyl)-methanone]
ratio of oral ED50 (at time of peak effect) over subcutaneous ED50 (obtained at 1 h) [4]: 1.4-1.8
ED50 ([4]; blockade (=0 retches), intravenous route, 1 h after administration, read-out: ED50 for blockade of loperamide-induced retching): 0.88 mg/kg
ED50 ([4]; blockade (=0 retches), oral route, 1 h after administration, read-out: ED50 for blockade of loperamide-induced retching): 1.65 mg/kg
ED50 ([4]; blockade (=0 retches), oral route, 2 h after administration, read-out: ED50 for blockade of loperamide-induced retching): 2.18 mg/kg
ED50 ([4]; blockade (=0 retches), oral route, 4 h after administration, read-out: ED50 for blockade of loperamide-induced retching): 1.25 mg/kg
ED50 ([4]; blockade (=0 retches), oral route, 8 h after administration, read-out: ED50 for blockade of loperamide-induced retching): 2.89 mg/kg
ED50 ([4]; blockade (=0 retches), oral route, 16 h after administration, read-out: ED50 for blockade of loperamide-induced retching): 2.89 mg/kg
ED50 ([4]; blockade (=0 retches), oral route, 32 h after administration, read-out: ED50 for blockade of loperamide-induced retching): 5 mg/kg
ED50 ([4]; blockade (=0 retches), oral route, 64 h after administration, read-out: ED50 for blockade of loperamide-induced retching): > 10 mg/kg
ED50 ([4]; inhibition (<20 retches), intravenous route, 1 h after administration, read-out: ED50 for inhibition of loperamide-induced retching): 0.39 mg/kg
ED50 ([4]; inhibition (<20 retches), oral route, 1 h after administration, read-out: ED50 for inhibition of loperamide-induced retching): 0.72 mg/kg
ED50 ([4]; inhibition (<20 retches), oral route, 2 h after administration, read-out: ED50 for inhibition of loperamide-induced retching): 0.96 mg/kg
ED50 ([4]; inhibition (<20 retches), oral route, 4 h after administration, read-out: ED50 for inhibition of loperamide-induced retching): 1.25 mg/kg
ED50 ([4]; inhibition (<20 retches), oral route, 8 h after administration, read-out: ED50 for inhibition of loperamide-induced retching): 1.25 mg/kg
ED50 ([4]; inhibition (<20 retches), oral route, 16 h after administration, read-out: ED50 for inhibition of loperamide-induced retching): 1.26 mg/kg
ED50 ([4]; inhibition (<20 retches), oral route, 32 h after administration, read-out: ED50 for inhibition of loperamide-induced retching): 3.81 mg/kg
ED50 ([4]; inhibition (<20 retches), oral route, 64 h after administration, read-out: ED50 for inhibition of loperamide-induced retching): > 10 mg/kg
ED50 ([4]; oral administration, time of peak effect, read-out: graphically estimated peak-effect ED50 for blockade of retching (=0 retches)): 1.4 mg/kg
duration of action ([4]; oral, at 4 times the peak-effect dose): 32 h
Ratio p.o./s.c. of ED50 for blockade of retching ([4]; p.o. (−2 h) over s.c. (−1 h)): 2.3
ED50 ([4]; iv, read-out: ED50 for blockade of retching 1 h after i.v. injection, i.v., 1 h): 0.88 mg/kg
ED50 ([4]; iv, read-out: ED50 for inhibition of retching 1 h after i.v. injection, i.v., 1 h): 0.39 mg/kg
ED50 ([4]; read-out: ED50 (95% confidence limits) for blockade of loperamide-induced retching, p.o. route (−2 h), loperamide 0.31 mg/kg s.c., 2 h after oral administration, blockade = 0 retches): 2.18 mg/kg
ED50 ([4]; read-out: graphically estimated peak-effect ED50 for inhibition of retching (<20 retches), oral administration, time of peak effect): 1 mg/kg
ED50 ([4]; sc, read-out: ED50 for blockade of loperamide-induced retching, loperamide 0.31 mg/kg s.c., 1 h after subcutaneous administration, blockade = 0 retches): 0.96 mg/kg
ED50 ([4]; sc, blockade (=0 retches), subcutaneous route, 1 h after administration, read-out: ED50 for blockade of loperamide-induced retching): 0.96 mg/kg
ED50 ([4]; sc, inhibition (<20 retches), subcutaneous route, 1 h after administration, read-out: ED50 for inhibition of loperamide-induced retching): 0.55 mg/kg
ED50 ([4]; sc, s.c., 1 h, <20 retches, read-out: ED50 for inhibition of retching one hour after s.c. injection): 0.55 mg/kg
ED50 ([4]; sc, s.c., 1 h, =0 retches, read-out: ED50 for complete blockade of retching one hour after s.c. injection): 0.96 mg/kg

IC50 [1]: 7.94 nM
IC50 [2]: 1000 nM
IC50 [3]: 1000 nM
melting point: 135 °C
Compound: O=C(c1cc(C(F)(F)F)cc(C(F)(F)F)c1)N1CCC(N2CCN(C3CCN(Cc4nc5ccccc5[nH]4)CC3)CC2)CC1Cc1ccccc1 (stereo not drawn) [Compound 7]

IC50 [1]: 7.94 nM
IC50 [2]: 3980 nM
IC50 [3]: 3980 nM
Compound: Cc1nnsc1C(=O)N1CCC(N2CCN([C@@H]3CCN(C(=O)c4cc(C(F)(F)F)cc(C(F)(F)F)c4)[C@@H](Cc4ccccc4)C3)CC2)CC1 [Compound 141]
